# From patent publication EP4603105A1, “PHARMACEUTICAL COMPOSITION CONTAINING CYCLIC COMPOUND HAVING SELECTIVE KRAS INHIBITORY EFFECT AGAINST HRAS AND NRAS” (CHUGAI SEIYAKU KABUSHIKI KAISHA, priority 2022, dated 2024)
# *1 amine or outer side, *2 acyl side, *3 side chain or, on linkers, in order; H or OH if unused. Where a SMILES comes first, the peptide text is derived from it. Bridges are numbered along the chain shown (N, C = ends). [ ]: non-standard residue; d: D form. The star is where a group is joined. X25 = O=C([C@H](Cc1ccc(C(F)(F)F)cc1)N(CCC(F)(F)F)[*:1])[*:2]; X23 = O=C([C@H](Cc1ccc(C(F)(F)F)cc1)N(CC1CCCC1)[*:1])[*:2]; X38 = CC(C)CCN([C@@H](Cc1ccc(C(F)(F)F)cc1)C(=O)[*:2])[*:1]; hPhe(3-Cl-4-CF3) = N[C@@H](CCc1ccc(C(F)(F)F)c(Cl)c1)C(=O)O; X24 = CC(C)CN([C@@H](Cc1ccc(C(F)(F)F)cc1)C(=O)[*:2])[*:1]; X39 = O=C([C@H](Cc1ccc(C(F)(F)F)cc1)N(CC1CCC1)[*:1])[*:2]; X22 = C=CCCN([C@@H](Cc1ccc(C(F)(F)F)cc1)C(=O)[*:2])[*:1]; X33 = O=C([C@H](Cc1ccc(C(F)(F)F)cc1)N(CC1CC1)[*:1])[*:2]; X43 = COCCCN([C@@H](Cc1ccc(C(F)(F)F)cc1)C(=O)[*:2])[*:1]; X18 = CCCCN([C@@H](Cc1ccc(C(F)(F)F)cc1)C(=O)[*:2])[*:1]; X29 = C#CCN([C@@H](Cc1ccc(C(F)(F)F)cc1)C(=O)[*:2])[*:1]; X34 = COCCN([C@@H](Cc1ccc(C(F)(F)F)cc1)C(=O)[*:2])[*:1]; NMeGly(cPent) = CN[C@H](C(=O)O)C1CCCC1; NMeD = CN[C@@H](CC(=O)O)C(=O)O; NMeL = CN[C@@H](CC(C)C)C(=O)O; Morpholide = C1CN(*)CCO1; NMeA = CN[C@@H](C)C(=O)O; Ac5c = NC1(C(=O)O)CCCC1; Aze = O=C(O)[C@@H]1CCN1; Sar = CNCC(=O)O
# Legend:
# [1] = tested on: human lung cancer strain NCI-H441; assay type: cell-based
# Procedure, shortened: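 Readout: […] after the ATP-based reagent. Compound: serial dilutions in dimethyl sulfoxide.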
# HRAS wild-type protein = HRAS wild-type protein (Homo sapiens, UniProt P01112); experiment: Binding to HRAS by surface plasmon resonance (SPR), KD and KD ratio to KRAS; conditions: ratio of KD for HRAS wild-type protein to KD for KRAS
# Procedure, shortened: (§1)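 GDP-loaded biotinylated Avi-tag RAS proteins (E. coli-expressed) captured on a Biotin CAPture chip at ~100–300 RU; single-cycle kinetics at 30°C, 100 µL/min, 75 s injections of rising compound concentrations. HBS pH 7.4 running buffer with 1 mM DTT, 10 mM MgCl2, 10 µM GDP, 4% DMSO. KD from 1:1 binding fit.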
# [2] = target: GDP-bound NRAS wild-type protein (Homo sapiens, UniProt P01111); experiment: Binding to NRAS by surface plasmon resonance (SPR), KD and KD ratio to KRAS; conditions: ratio of KD for GDP-bound NRAS wild-type protein to KD for KRAS
# Procedure, shortened: as §1
# Chain of GDP-bound NRAS wild-type protein (P01111 whole entry): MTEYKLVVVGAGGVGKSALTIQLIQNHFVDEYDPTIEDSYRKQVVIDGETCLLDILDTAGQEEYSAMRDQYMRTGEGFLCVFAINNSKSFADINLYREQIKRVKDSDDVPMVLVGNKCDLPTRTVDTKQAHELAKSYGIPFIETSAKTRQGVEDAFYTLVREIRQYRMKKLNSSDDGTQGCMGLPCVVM
# Chain of HRAS wild-type protein (P01112 whole entry): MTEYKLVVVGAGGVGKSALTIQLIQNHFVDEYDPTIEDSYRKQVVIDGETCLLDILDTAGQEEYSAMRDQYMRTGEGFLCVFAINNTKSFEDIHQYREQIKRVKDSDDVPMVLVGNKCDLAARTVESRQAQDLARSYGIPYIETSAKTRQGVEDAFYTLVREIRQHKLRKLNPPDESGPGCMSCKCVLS
compound,measurement,setting,value
CC[C@H](C)[C@@H]1NC(=O)[C@H](CC(C)C)N(C)C(=O)C[C@@H](C(=O)N2CCOCC2)N(C)C(=O)[C@H](C2CCCC2)N(C)C(=O)C2(CCCC2)NC(=O)[C@@H]2CCCN2C(=O)[C@H](CCc2ccc(C(F)(F)F)c(Cl)c2)NC(=O)CN(C)C(=O)[C@H](Cc2ccc(C(F)(F)F)cc2)N(CCCOC)C(=O)[C@@H]2CCN2C(=O)[C@H](C)N(C)C1=O [PP0119] ([NMeL]I[NMeA][Aze][X43][Sar][hPhe(3-Cl-4-CF3)]P[Ac5c][NMeGly(cPent)][NMeD]-Morpholide; lactam N-11),IC50,[1],1.6 nM
same,HRAS /KRAS,HRAS wild-type protein,C (A compound having a KD ratio of 0.1 or more and less than 3 is denoted as C)
same,NRAS /KRAS,[2],C (A compound having a KD ratio of 0.1 or more and less than 3 is denoted as C)
CCCCN1C(=O)CN(C)C(=O)CN(C)C(=O)[C@H]([C@@H](C)CC)NC(=O)[C@H](CC(C)C)N(C)C(=O)C[C@@H](C(=O)N2CCOCC2)N(C)C(=O)[C@H](C2CCCC2)N(C)C(=O)C2(CCCC2)NC(=O)[C@@H]2CCCN2C(=O)[C@H](CCc2ccc(C(F)(F)F)c(Cl)c2)NC(=O)CN(C)C(=O)[C@@H]1Cc1ccc(C(F)(F)F)cc1 [PP0120] ([NMeL]I[Sar][Sar][X18][Sar][hPhe(3-Cl-4-CF3)]P[Ac5c][NMeGly(cPent)][NMeD]-Morpholide; lactam N-11),IC50,[1],5.6 nM
same,HRAS /KRAS,HRAS wild-type protein,C (A compound having a KD ratio of 0.1 or more and less than 3 is denoted as C)
same,NRAS /KRAS,[2],B (a compound having 3 or more and less than 10 is denoted as B)
CC[C@H](C)[C@@H]1NC(=O)[C@H](CC(C)C)N(C)C(=O)C[C@@H](C(=O)N2CCOCC2)N(C)C(=O)[C@H](C2CCCC2)N(C)C(=O)C2(CCCC2)NC(=O)[C@@H]2CCCN2C(=O)[C@H](CCc2ccc(C(F)(F)F)c(Cl)c2)NC(=O)CN(C)C(=O)[C@H](Cc2ccc(C(F)(F)F)cc2)N(CC(C)C)C(=O)CN(C)C(=O)CN(C)C1=O [PP0121] ([NMeL]I[Sar][Sar][X24][Sar][hPhe(3-Cl-4-CF3)]P[Ac5c][NMeGly(cPent)][NMeD]-Morpholide; lactam N-11),IC50,[1],29.5 nM
same,HRAS /KRAS,HRAS wild-type protein,C (A compound having a KD ratio of 0.1 or more and less than 3 is denoted as C)
same,NRAS /KRAS,[2],C (A compound having a KD ratio of 0.1 or more and less than 3 is denoted as C)
CC[C@H](C)[C@@H]1NC(=O)[C@H](CC(C)C)N(C)C(=O)C[C@@H](C(=O)N2CCOCC2)N(C)C(=O)[C@H](C2CCCC2)N(C)C(=O)C2(CCCC2)NC(=O)[C@@H]2CCCN2C(=O)[C@H](CCc2ccc(C(F)(F)F)c(Cl)c2)NC(=O)CN(C)C(=O)[C@H](Cc2ccc(C(F)(F)F)cc2)N(CC2CC2)C(=O)CN(C)C(=O)CN(C)C1=O [PP0122] ([NMeL]I[Sar][Sar][X33][Sar][hPhe(3-Cl-4-CF3)]P[Ac5c][NMeGly(cPent)][NMeD]-Morpholide; lactam N-11),IC50,[1],12 nM
same,HRAS /KRAS,HRAS wild-type protein,C (A compound having a KD ratio of 0.1 or more and less than 3 is denoted as C)
same,NRAS /KRAS,[2],C (A compound having a KD ratio of 0.1 or more and less than 3 is denoted as C)
CC[C@H](C)[C@@H]1NC(=O)[C@H](CC(C)C)N(C)C(=O)C[C@@H](C(=O)N2CCOCC2)N(C)C(=O)[C@H](C2CCCC2)N(C)C(=O)C2(CCCC2)NC(=O)[C@@H]2CCCN2C(=O)[C@H](CCc2ccc(C(F)(F)F)c(Cl)c2)NC(=O)CN(C)C(=O)[C@H](Cc2ccc(C(F)(F)F)cc2)N(CC2CCC2)C(=O)CN(C)C(=O)CN(C)C1=O [PP0123] ([NMeL]I[Sar][Sar][X39][Sar][hPhe(3-Cl-4-CF3)]P[Ac5c][NMeGly(cPent)][NMeD]-Morpholide; lactam N-11),IC50,[1],12.5 nM
same,HRAS /KRAS,HRAS wild-type protein,C (A compound having a KD ratio of 0.1 or more and less than 3 is denoted as C)
same,NRAS /KRAS,[2],B (a compound having 3 or more and less than 10 is denoted as B)
CC[C@H](C)[C@@H]1NC(=O)[C@H](CC(C)C)N(C)C(=O)C[C@@H](C(=O)N2CCOCC2)N(C)C(=O)[C@H](C2CCCC2)N(C)C(=O)C2(CCCC2)NC(=O)[C@@H]2CCCN2C(=O)[C@H](CCc2ccc(C(F)(F)F)c(Cl)c2)NC(=O)CN(C)C(=O)[C@H](Cc2ccc(C(F)(F)F)cc2)N(CC2CCCC2)C(=O)CN(C)C(=O)CN(C)C1=O [PP0124] ([NMeL]I[Sar][Sar][X23][Sar][hPhe(3-Cl-4-CF3)]P[Ac5c][NMeGly(cPent)][NMeD]-Morpholide; lactam N-11),IC50,[1],48.8 nM
same,HRAS /KRAS,HRAS wild-type protein,C (A compound having a KD ratio of 0.1 or more and less than 3 is denoted as C)
same,NRAS /KRAS,[2],C (A compound having a KD ratio of 0.1 or more and less than 3 is denoted as C)
CC[C@H](C)[C@@H]1NC(=O)[C@H](CC(C)C)N(C)C(=O)C[C@@H](C(=O)N2CCOCC2)N(C)C(=O)[C@H](C2CCCC2)N(C)C(=O)C2(CCCC2)NC(=O)[C@@H]2CCCN2C(=O)[C@H](CCc2ccc(C(F)(F)F)c(Cl)c2)NC(=O)CN(C)C(=O)[C@H](Cc2ccc(C(F)(F)F)cc2)N(CCC(C)C)C(=O)CN(C)C(=O)CN(C)C1=O [PP0126] ([NMeL]I[Sar][Sar][X38][Sar][hPhe(3-Cl-4-CF3)]P[Ac5c][NMeGly(cPent)][NMeD]-Morpholide; lactam N-11),IC50,[1],9.3 nM
same,HRAS /KRAS,HRAS wild-type protein,C (A compound having a KD ratio of 0.1 or more and less than 3 is denoted as C)
same,NRAS /KRAS,[2],C (A compound having a KD ratio of 0.1 or more and less than 3 is denoted as C)
C=CCCN1C(=O)CN(C)C(=O)CN(C)C(=O)[C@H]([C@@H](C)CC)NC(=O)[C@H](CC(C)C)N(C)C(=O)C[C@@H](C(=O)N2CCOCC2)N(C)C(=O)[C@H](C2CCCC2)N(C)C(=O)C2(CCCC2)NC(=O)[C@@H]2CCCN2C(=O)[C@H](CCc2ccc(C(F)(F)F)c(Cl)c2)NC(=O)CN(C)C(=O)[C@@H]1Cc1ccc(C(F)(F)F)cc1 [PP0129] ([NMeL]I[Sar][Sar][X22][Sar][hPhe(3-Cl-4-CF3)]P[Ac5c][NMeGly(cPent)][NMeD]-Morpholide; lactam N-11),IC50,[1],8.8 nM
same,HRAS /KRAS,HRAS wild-type protein,C (A compound having a KD ratio of 0.1 or more and less than 3 is denoted as C)
same,NRAS /KRAS,[2],B (a compound having 3 or more and less than 10 is denoted as B)
C#CCN1C(=O)CN(C)C(=O)CN(C)C(=O)[C@H]([C@@H](C)CC)NC(=O)[C@H](CC(C)C)N(C)C(=O)C[C@@H](C(=O)N2CCOCC2)N(C)C(=O)[C@H](C2CCCC2)N(C)C(=O)C2(CCCC2)NC(=O)[C@@H]2CCCN2C(=O)[C@H](CCc2ccc(C(F)(F)F)c(Cl)c2)NC(=O)CN(C)C(=O)[C@@H]1Cc1ccc(C(F)(F)F)cc1 [PP0130] ([NMeL]I[Sar][Sar][X29][Sar][hPhe(3-Cl-4-CF3)]P[Ac5c][NMeGly(cPent)][NMeD]-Morpholide; lactam N-11),IC50,[1],8.8 nM
same,HRAS /KRAS,HRAS wild-type protein,C (A compound having a KD ratio of 0.1 or more and less than 3 is denoted as C)
same,NRAS /KRAS,[2],C (A compound having a KD ratio of 0.1 or more and less than 3 is denoted as C)
CC[C@H](C)[C@@H]1NC(=O)[C@H](CC(C)C)N(C)C(=O)C[C@@H](C(=O)N2CCOCC2)N(C)C(=O)[C@H](C2CCCC2)N(C)C(=O)C2(CCCC2)NC(=O)[C@@H]2CCCN2C(=O)[C@H](CCc2ccc(C(F)(F)F)c(Cl)c2)NC(=O)CN(C)C(=O)[C@H](Cc2ccc(C(F)(F)F)cc2)N(CCC(F)(F)F)C(=O)CN(C)C(=O)CN(C)C1=O [PP0131] ([NMeL]I[Sar][Sar][X25][Sar][hPhe(3-Cl-4-CF3)]P[Ac5c][NMeGly(cPent)][NMeD]-Morpholide; lactam N-11),IC50,[1],11.1 nM
same,HRAS /KRAS,HRAS wild-type protein,C (A compound having a KD ratio of 0.1 or more and less than 3 is denoted as C)
same,NRAS /KRAS,[2],B (a compound having 3 or more and less than 10 is denoted as B)
CC[C@H](C)[C@@H]1NC(=O)[C@H](CC(C)C)N(C)C(=O)C[C@@H](C(=O)N2CCOCC2)N(C)C(=O)[C@H](C2CCCC2)N(C)C(=O)C2(CCCC2)NC(=O)[C@@H]2CCCN2C(=O)[C@H](CCc2ccc(C(F)(F)F)c(Cl)c2)NC(=O)CN(C)C(=O)[C@H](Cc2ccc(C(F)(F)F)cc2)N(CCOC)C(=O)CN(C)C(=O)CN(C)C1=O [PP0132] ([NMeL]I[Sar][Sar][X34][Sar][hPhe(3-Cl-4-CF3)]P[Ac5c][NMeGly(cPent)][NMeD]-Morpholide; lactam N-11),IC50,[1],14.8 nM
same,HRAS /KRAS,HRAS wild-type protein,C (A compound having a KD ratio of 0.1 or more and less than 3 is denoted as C)
same,NRAS /KRAS,[2],C (A compound having a KD ratio of 0.1 or more and less than 3 is denoted as C)
CC[C@H](C)[C@@H]1NC(=O)[C@H](CC(C)C)N(C)C(=O)C[C@@H](C(=O)N2CCOCC2)N(C)C(=O)[C@H](C2CCCC2)N(C)C(=O)C2(CCCC2)NC(=O)[C@@H]2CCCN2C(=O)[C@H](CCc2ccc(C(F)(F)F)c(Cl)c2)NC(=O)CN(C)C(=O)[C@H](Cc2ccc(C(F)(F)F)cc2)N(CCCOC)C(=O)CN(C)C(=O)CN(C)C1=O [PP0133] ([NMeL]I[Sar][Sar][X43][Sar][hPhe(3-Cl-4-CF3)]P[Ac5c][NMeGly(cPent)][NMeD]-Morpholide; lactam N-11),IC50,[1],6.4 nM
same,HRAS /KRAS,HRAS wild-type protein,C (A compound having a KD ratio of 0.1 or more and less than 3 is denoted as C)
same,NRAS /KRAS,[2],B (a compound having 3 or more and less than 10 is denoted as B)
